Calls of active or inactive are those of the source.
Legend:
Aminopeptidase N = target: T1, Aminopeptidase N (Plasmodium falciparum FcB1/Columbia, UniProt O96935); assay: malaria alanyl aminopeptidase activity blockers – biochemical, fluorogenic H-Leu-NHMec substrate, 1536-well (AID 1445); set-up: species or system Plasmodium falciparum 3D7, 3D7
T1 sequence (O96935 whole entry): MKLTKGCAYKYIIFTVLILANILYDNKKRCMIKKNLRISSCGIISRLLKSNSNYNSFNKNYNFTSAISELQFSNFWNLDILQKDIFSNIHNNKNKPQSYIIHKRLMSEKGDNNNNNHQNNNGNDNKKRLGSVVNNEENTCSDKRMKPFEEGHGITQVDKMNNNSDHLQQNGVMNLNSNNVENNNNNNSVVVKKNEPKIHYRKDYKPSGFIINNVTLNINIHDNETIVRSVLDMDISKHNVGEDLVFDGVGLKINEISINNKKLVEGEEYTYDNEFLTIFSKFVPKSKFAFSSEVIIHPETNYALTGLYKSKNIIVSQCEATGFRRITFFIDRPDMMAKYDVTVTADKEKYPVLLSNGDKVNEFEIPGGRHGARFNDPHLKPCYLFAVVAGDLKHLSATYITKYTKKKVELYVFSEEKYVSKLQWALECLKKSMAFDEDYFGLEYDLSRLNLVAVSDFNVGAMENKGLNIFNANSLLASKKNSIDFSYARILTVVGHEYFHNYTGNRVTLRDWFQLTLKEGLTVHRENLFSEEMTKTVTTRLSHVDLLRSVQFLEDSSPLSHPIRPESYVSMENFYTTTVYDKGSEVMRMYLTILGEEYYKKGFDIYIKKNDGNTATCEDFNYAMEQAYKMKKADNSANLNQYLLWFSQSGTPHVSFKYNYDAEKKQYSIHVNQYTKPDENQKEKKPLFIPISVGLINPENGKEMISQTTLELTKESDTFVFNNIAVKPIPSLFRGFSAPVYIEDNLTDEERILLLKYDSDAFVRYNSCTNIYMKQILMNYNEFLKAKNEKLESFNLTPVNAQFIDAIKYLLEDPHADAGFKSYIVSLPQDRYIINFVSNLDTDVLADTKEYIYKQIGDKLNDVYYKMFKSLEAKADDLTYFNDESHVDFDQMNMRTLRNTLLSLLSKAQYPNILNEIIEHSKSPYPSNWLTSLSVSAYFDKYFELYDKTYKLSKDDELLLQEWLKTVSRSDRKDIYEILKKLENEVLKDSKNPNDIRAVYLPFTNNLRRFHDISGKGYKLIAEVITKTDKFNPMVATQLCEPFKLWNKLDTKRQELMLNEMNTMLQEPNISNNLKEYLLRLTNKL

[1] = target: Transitional endoplasmic reticulum ATPase (Homo sapiens, UniProt P55072); assay: p97 ATPase inhibitors, dose response, biochemical (AID 1534)
Sequence of Transitional endoplasmic reticulum ATPase (Homo sapiens, UniProt P55072) (P55072 whole entry): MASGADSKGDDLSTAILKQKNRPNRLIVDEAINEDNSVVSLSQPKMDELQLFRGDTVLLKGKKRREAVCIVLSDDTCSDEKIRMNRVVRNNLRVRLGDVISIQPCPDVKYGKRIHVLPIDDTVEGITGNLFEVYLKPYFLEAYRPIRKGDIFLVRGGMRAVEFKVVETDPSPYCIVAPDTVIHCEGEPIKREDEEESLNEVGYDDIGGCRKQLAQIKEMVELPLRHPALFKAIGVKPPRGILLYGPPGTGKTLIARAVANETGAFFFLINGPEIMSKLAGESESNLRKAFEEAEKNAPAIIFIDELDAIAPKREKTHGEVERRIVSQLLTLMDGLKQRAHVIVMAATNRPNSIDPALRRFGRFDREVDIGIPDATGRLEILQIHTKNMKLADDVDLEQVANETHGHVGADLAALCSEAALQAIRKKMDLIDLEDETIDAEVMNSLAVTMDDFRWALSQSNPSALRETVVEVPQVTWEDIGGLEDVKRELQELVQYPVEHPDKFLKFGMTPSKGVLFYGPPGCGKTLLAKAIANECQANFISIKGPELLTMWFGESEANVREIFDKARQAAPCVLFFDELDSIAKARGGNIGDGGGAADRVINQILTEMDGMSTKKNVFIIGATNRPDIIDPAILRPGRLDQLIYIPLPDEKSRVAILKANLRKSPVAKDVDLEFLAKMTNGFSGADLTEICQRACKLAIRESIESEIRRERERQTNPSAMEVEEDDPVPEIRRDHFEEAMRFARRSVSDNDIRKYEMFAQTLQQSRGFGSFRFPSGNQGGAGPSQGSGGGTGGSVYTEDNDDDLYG

[2] = target: T2, Histone-lysine N-methyltransferase NSD2 (Homo sapiens, UniProt O96028); assay type: biochemical
T2 sequence (O96028 whole entry): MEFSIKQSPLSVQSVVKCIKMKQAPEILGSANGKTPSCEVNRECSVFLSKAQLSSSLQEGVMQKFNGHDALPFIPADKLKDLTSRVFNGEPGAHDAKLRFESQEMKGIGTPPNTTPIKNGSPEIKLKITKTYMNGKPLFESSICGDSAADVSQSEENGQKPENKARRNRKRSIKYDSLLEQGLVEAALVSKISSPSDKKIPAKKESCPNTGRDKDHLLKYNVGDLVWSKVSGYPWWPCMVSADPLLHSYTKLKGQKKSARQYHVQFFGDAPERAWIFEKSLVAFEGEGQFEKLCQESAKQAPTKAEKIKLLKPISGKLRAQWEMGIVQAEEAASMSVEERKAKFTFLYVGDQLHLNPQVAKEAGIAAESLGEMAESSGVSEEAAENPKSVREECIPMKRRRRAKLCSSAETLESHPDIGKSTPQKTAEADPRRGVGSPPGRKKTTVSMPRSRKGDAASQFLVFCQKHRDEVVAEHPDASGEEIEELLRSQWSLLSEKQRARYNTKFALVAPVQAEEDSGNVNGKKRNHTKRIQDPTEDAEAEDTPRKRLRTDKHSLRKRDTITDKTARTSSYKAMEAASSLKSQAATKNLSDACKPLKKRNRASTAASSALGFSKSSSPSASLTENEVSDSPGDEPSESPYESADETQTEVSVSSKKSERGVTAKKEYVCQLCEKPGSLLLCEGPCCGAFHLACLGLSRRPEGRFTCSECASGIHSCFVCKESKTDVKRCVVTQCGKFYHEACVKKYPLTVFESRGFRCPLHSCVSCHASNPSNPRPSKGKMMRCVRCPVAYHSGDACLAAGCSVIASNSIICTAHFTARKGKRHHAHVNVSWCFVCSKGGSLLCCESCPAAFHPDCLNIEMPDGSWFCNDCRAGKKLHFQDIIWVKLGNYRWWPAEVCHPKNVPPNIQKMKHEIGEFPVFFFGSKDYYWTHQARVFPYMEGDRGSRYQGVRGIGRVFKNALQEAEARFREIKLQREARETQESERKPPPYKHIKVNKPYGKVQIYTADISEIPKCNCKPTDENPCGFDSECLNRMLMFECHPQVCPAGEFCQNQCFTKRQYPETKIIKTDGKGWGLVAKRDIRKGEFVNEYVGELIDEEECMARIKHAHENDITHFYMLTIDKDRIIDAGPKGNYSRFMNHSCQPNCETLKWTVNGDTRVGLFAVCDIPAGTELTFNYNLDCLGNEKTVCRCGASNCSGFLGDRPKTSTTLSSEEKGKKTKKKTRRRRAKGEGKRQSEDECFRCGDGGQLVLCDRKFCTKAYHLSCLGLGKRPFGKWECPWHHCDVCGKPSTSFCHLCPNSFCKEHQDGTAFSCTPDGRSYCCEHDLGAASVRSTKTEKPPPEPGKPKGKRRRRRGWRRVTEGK

Kallikrein-7 = Kallikrein-7 (Homo sapiens, UniProt P49862); assay: Fluorescence Intensity-based biochemical primary high throughput dose response assay to identify activators of kallikrein-7 (K7) zymogen.
Sequence of Kallikrein-7 (P49862 whole entry): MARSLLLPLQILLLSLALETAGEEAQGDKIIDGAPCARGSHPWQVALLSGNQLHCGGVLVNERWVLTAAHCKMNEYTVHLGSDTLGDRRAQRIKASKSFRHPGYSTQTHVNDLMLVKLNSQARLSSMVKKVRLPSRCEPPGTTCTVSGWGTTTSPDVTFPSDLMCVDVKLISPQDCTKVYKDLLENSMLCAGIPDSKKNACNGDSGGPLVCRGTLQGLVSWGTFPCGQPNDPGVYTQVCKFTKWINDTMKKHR

[3] = Counterscreen for IDE inhibitors: Luminescence-based cell-based high throughput dose response assay to identify compounds that are cytotoxic to HEK cells. [Related pubchem assays: 434962 (Primary screen (IDE inhibitors in singlicate)), 449730 (Counterscreen (Cytotoxicity in triplicate)), 435028 (Confirmation (IDE inhibitors in triplicate)) …; assay type: functional; conditions: HEK293
[4] = target: Transitional endoplasmic reticulum ATPase (Homo sapiens, UniProt P55072, C522A); assay: C522A mutant p97 ATPase inhibitors, dose response, counter-screen for p97 inhibitor project, biochemical, luminescence (AID 1544)
Sequence of Transitional endoplasmic reticulum ATPase (Homo sapiens, UniProt P55072, C522A) (P55072 2-806 C522A limits assumed): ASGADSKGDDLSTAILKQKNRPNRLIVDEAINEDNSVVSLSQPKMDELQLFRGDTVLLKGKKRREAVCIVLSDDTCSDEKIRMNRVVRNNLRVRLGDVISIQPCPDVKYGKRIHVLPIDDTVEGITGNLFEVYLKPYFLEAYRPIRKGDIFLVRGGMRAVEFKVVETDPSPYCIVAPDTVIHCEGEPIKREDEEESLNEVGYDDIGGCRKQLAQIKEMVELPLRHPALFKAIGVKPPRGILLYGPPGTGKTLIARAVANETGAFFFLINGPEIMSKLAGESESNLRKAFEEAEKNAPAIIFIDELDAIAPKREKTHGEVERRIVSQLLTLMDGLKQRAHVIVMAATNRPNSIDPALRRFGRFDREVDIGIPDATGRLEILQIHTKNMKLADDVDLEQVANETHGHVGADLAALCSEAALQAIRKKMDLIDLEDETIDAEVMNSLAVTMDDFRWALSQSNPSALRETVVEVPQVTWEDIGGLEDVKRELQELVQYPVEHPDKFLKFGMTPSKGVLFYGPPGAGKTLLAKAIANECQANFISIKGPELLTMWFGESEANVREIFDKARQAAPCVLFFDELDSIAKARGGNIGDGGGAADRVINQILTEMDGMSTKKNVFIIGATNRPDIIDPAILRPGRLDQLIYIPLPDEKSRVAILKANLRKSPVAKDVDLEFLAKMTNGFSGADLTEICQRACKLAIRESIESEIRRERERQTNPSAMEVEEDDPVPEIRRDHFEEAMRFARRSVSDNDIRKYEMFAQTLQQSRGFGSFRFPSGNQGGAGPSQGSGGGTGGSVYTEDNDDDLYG

Insulin-degrading enzyme = target: T3, Insulin-degrading enzyme (Homo sapiens, UniProt P14735); assay: Dose Response: Fluorescence polarization-based cell-based high throughput dose response assay for inhibitors of insulin-degrading enzyme (IDE). [Related pubchem assays: 434962 (Primary screen (IDE inhibitors in singlicate)), 449730 (Counterscreen (Cytotoxicity in triplicate)), 435028 (Confirmation (IDE inhibitors in triplicate)), 434984 (Summary …; assay type: functional
T3 sequence (P14735 whole entry): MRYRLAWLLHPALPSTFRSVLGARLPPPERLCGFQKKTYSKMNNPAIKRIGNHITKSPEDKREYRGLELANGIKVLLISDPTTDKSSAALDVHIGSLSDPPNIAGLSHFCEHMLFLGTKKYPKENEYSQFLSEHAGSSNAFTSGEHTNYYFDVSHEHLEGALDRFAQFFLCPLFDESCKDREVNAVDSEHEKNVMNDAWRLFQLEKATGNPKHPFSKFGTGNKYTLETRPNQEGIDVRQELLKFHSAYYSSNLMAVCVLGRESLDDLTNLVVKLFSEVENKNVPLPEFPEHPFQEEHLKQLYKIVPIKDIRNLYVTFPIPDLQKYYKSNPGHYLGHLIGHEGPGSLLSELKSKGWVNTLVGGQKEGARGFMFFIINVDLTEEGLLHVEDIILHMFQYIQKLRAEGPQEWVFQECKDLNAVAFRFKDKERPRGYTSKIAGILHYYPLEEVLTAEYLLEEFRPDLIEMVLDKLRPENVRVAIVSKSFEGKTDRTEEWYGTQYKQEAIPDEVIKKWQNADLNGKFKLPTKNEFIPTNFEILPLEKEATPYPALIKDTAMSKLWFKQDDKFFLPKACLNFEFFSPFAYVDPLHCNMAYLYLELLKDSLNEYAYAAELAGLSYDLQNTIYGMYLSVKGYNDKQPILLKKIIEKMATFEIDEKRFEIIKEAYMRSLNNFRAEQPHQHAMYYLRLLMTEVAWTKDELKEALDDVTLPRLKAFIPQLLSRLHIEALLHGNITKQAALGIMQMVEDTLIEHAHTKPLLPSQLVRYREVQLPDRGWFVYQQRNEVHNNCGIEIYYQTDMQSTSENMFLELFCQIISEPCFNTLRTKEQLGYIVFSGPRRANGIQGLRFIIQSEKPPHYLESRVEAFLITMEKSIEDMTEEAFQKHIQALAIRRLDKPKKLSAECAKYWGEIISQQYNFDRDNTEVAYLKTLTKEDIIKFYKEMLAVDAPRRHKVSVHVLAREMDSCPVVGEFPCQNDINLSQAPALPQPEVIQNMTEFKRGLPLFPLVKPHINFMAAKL

[5] = blockers of HIV-1 envelope-mediated cell-cell fusion – cherry-pick, dose response (AID 652057); assay type: functional, cell-based
[6] = toxicity to human hepatoma HepG2 cells – cell-based, cherry-picked samples, cytotoxicity control, dose response (AID 1159577); assay type: functional
[7] = P. falciparum Dd2 growth inhibitors, dose response, SYBR Green, cherry-picked samples (AID 1159567); assay type: functional, cell-based
[8] = inhibition of Env-driven cell fusion – HIV entry, plate reader, dry powder, dose response (AID 687023); assay type: functional, cell-based
[9] = HIV-1 AD8 envelope cell-cell fusion blockers – cherry-pick, dose response (AID 652062); assay type: functional, cell-based;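 also: luciferase signal from cell-cell fusion driven by HIV-1 clade B AD8 Env; potency is for inhibitors of fusion seen as a drop in luminescence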
[10] = viability loss in CEM21 cells – cell-based, CellTiter-Glo luminescence, cherry-picked, cytotoxicity control for viral fusion inhibitor project, dose response (AID 652042); assay type: functional;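 also: potency for signal decrease meaning cytotoxicity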
[11] = general mammalian cell viability loss – activator set, cherry-pick, cytotoxicity control for miR-122 modulator project, dose response (AID 720690); assay type: functional, cell-based;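 also: HEK293T human cells scored for general mammalian cytotoxicity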
[12] = PAX5 cellular inhibition readout – cell-based, plate reader, dry powder samples, selectivity assay for PAX8 inhibitor project, dose response (AID 743047); assay type: functional;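 also: HEK293 cells carrying a Pax5 driven CD19 promoter luciferase reporter; potency of inhibitors that lower reporter luminescence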
[13] = OV-90 cell viability loss – plate reader, dry powder, SA8, PAX8 inhibitor project, dose response (AID 743149); assay type: functional, cell-based
[14] = COV434 cell viability loss – plate reader, dry powder, SA7, cytotoxicity control for PAX8 inhibitor project, dose response (AID 743145); assay type: functional, cell-based
[15] = inhibitors acting on PAX2 in cells – cell-based, plate reader, dry powder samples, selectivity assay for PAX8 inhibitor project, dose response (AID 743048); assay type: functional;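 also: HEK293 cells carrying a WT1 promoter luciferase reporter driven by expressed Pax2; potency is for inhibition of Pax2 driven reporter signal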
[16] = CMV-driven luciferase expression suppression in HEK293 – cell-based, luminescence, dry powder, counter-screen for Pax8 inhibitor project, dose response (AID 743020); assay type: functional
[17] = OVCAR8 cell viability loss – plate reader, dry powder samples, PAX8 project, dose response (AID 743197); assay type: functional, cell-based; conditions: OVCAR-8
Paired box protein Pax-8 = Paired box protein Pax-8 (Homo sapiens, UniProt Q06710); assay: PAX8 transcriptional activity inhibition in RMG-I – RMG-I cells, luciferase, cherry-pick, dose response (AID 687027); assay type: functional, cell-based;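 also: luciferase reporter driven by Pax8 target thyroperoxidase promoter measured by SteadyGlo luminescence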
Sequence of Paired box protein Pax-8 (Q06710 whole entry): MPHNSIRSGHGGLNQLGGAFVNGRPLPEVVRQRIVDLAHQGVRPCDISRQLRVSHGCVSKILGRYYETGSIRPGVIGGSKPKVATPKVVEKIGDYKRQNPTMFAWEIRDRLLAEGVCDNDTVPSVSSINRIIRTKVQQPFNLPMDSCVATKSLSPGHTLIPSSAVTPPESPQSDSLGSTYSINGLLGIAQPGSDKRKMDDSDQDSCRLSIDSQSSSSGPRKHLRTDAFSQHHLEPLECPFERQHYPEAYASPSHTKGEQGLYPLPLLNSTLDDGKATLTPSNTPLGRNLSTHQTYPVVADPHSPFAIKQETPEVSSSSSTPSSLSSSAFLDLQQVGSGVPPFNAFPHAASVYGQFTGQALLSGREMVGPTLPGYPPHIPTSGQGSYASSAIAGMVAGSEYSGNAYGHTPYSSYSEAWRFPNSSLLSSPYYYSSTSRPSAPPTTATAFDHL

[18] = PAX8-dependent cell viability loss – plate reader, dry powder, dose response (AID 743049); assay type: functional, cell-based
[19] = target: NAD-dependent protein deacylase sirtuin-5, mitochondrial (Homo sapiens, UniProt Q9NXA8); assay: blockers of sirtuin-5 peptide desuccinylation – biochemical, fluorescence imaging, cherry-pick, set 6, dose response (AID 720597)
Sequence of NAD-dependent protein deacylase sirtuin-5, mitochondrial (Q9NXA8 whole entry): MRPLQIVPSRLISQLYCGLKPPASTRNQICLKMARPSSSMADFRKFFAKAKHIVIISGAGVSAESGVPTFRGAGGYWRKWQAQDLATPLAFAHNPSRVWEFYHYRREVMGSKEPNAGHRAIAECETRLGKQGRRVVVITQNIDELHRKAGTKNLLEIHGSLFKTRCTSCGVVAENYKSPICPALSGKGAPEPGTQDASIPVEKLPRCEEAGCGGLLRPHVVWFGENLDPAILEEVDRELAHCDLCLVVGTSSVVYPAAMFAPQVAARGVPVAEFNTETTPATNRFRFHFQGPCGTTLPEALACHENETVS

[20] = T. cruzi growth inhibition in host cells, dose response, cell-based, plate reader, dry powder, set 2 (AID 652275); assay type: functional
[21] = Trypanosoma cruzi replication inhibitors in host cells – cell-based, plate reader, dry powder samples, dose response (AID 651845); assay type: functional
[22] = anti-trypanosomal activity in BESM host cells – imaging, CA-I/72 strain, bovine embryo skeletal muscle, dry powder, dose response (AID 651885); assay type: functional, cell-based

Compound: N=C1/C(=C\c2coc3ccccc3c2=O)C(=O)N=C2SC(c3ccncc3)=NN12
- IC50 (Aminopeptidase N): 44 µM (active)
- IC50 [1]: 11.1 µM (not active)
- AC50 [2]: 18.8 µM (active)
- EC50 (Kallikrein-7): > 7.72 µM (active)
- IC50 [3]: 30.1 µM (not active)
- IC50 [4]: 9.26 µM (active)
- IC50 (Insulin-degrading enzyme): > 18.6 µM (not active)

Compound: CO[C@@H]1CN(C)C(=O)c2ccc(NC(=O)Nc3cccc(F)c3)cc2OC[C@@H](C)N(C(=O)Nc2cccc(F)c2)C[C@H]1C
- AC50 [5]: 3.17 µM (active)
- AC50 [6]: > 42 µM (inactive)
- AC50 [7]: 3.07 µM (active)
- AC50 [8]: 8.94 µM (active)
- AC50 [9]: 61 µM (active)
- AC50 [10]: 61.4 µM (active)

Compound: C[C@H](CO)N1C[C@H](C)[C@@H](CN(C)Cc2ccc(C(F)(F)F)cc2)Oc2ccc(NS(=O)(=O)c3ccc(Cl)cc3)cc2CC1=O
- AC50 [11]: 12.9 µM (active)
- AC50 [12]: 29.8 µM (active)
- AC50 [13]: 39 µM (active)
- AC50 [14]: 37.7 µM (active)
- AC50 [15]: 28.6 µM (active)
- AC50 [16]: 41.8 µM (active)
- AC50 [17]: > 70 µM (inactive)
- AC50 (Paired box protein Pax-8): 11.2 µM (active)
- AC50 [18]: 21.9 µM (active)

Compound: CO[C@H]1CN(C)C(=O)c2ccc(NC(=O)C3CC3)cc2OC[C@@H](C)N(C(=O)c2ccccc2F)C[C@H]1C
- AC50 [19]: > 30 µM (inactive)

Compound: C[C@@H]1CN([C@@H](C)CO)C(=O)c2cccc(NC(=O)c3ccncc3)c2O[C@H]1CN(C)Cc1cccc(Cl)c1
- AC50 [20]: 0.0169 µM (active)
- AC50 [21]: 0.0706 µM (active)
- IC50 [22]: 0.0074 µM (active)
